In series [1] the test system is human cervix adenocarcinoma cell line (HeLa). More on the design: method as in PMID 24633329. The settings on record: cited from earlier work.
Details of series [2]: method as in ref 21 = [21]; 21 Nuñez-Selles AJ . Antioxidant therapy: myth or reality? J Braz Chem Soc . 2005; 16 : 699 – 710 . Conditions: cited from earlier work.
Series [3] addresses Collagenase from Clostridium histolyticum. Put plainly: Spectrophotometric collagenase assay with FALGPA as substrate. The format is biochemical. The procedure:
A spectrophotometric collagenase assay was performed as previously described, with N-[3- (2-Furyl) acryloyl]- Leu- Gly- Pro-Ala (FALGPA) as the substrate. […] The reaction mixtures were preincubated with mangiferin solutions for 15 minutes at room temperature. The addition of FALGPA started the reaction. Changes in product formation were recorded every 20 seconds for 20 minutes in the absorbance λ = 335 nm with the use of the Epoch (BioTek System) spectrophotometer in 96-well plates (BIOCOM SYSTEMS). Oleanolic acid was used as a control. The kinetic parameters Vo, Km and Vmax were calculated according to Michaelis-Menten and Lineweaver-Burk plots and analyzed in the GraphPad prism program and Excel.
As stated by the data supplier: 1U of collagenase hydrolyses […] FALGPA/min at pH 7.5 and 25°C, in the presence of calcium ions.

Details of series [4]: method as in ref 18 = [18]; 18 Acosta J , Sevilla I , Salomón S , Nuevas L , Romero A , Amaro D . Determination of mangiferin solubility in solvents used in the biopharmaceutical industry . Pharm Pharmacogn Res . 2016; 4 ( 2 ):
Conditions: cited from earlier work.

Series [5] has as its target porcine pancreatic elastase (Sus scrofa, UniProt P00772). The series is described as follows: Spectrophotometric elastase assay with SANA as substrate. Format: biochemical.
Experimental: A spectrophotometric elastase assay was performed as previously described [25], with N-Succ-(-Ala)3-p-nitroanilide (SANA) as the substrate. […] The addition of SANA started the reaction. Changes in product formation: p-nitroaniline was recorded every 20 seconds for 20 minutes in the absorbance λ = 410 nm with the use of the Epoch (BioTek System) spectrophotometer in 96-well plates (BIOCOM SYSTEMS). The oleanolic acid was used as a control [26]. Kinetic parameters Vo, Km and Vmax were calculated according to Michaelis-Menten and Lineweaver-Burk plots and analyzed in the GraphPad prism program and Excel.
As stated by the data supplier: 1U elastase hydrolyses 1 μM SANA/min at pH 8 and 25°C. The molar absorption coefficient of p-nitroaniline is 9800 M^–1 cm^–1.
The format of series [6] is in vitro ADME. Conditions: human, 25 μg/ml. The procedure:
The studies were performed using human cadaver full skin (thickness of 0.75 mm) obtained from the region of the thorax of 40–60 years old donors. The study was reviewed and approved by the Independent Bioethics Commission for Research of the Medical University of Gdansk (number NKBBN/120-41/2014). Before the experiment, the skin was stored frozen at -20 °C. The preparations were applied as an infinite dose (0.5 ml mangiferin solution at concentration of 25 μg/ml) on the surface of the skin placed in the flow-through Teflon® diffusion chamber (Crown Glass, USA), and left for 24 h. The diffusion area of the skin was 0.65 cm^2. The donor compartment of the chamber remained occluded, and the system was maintained at the temperature 37°C ± 0.5°C. Saline solution, 20 ml, preserved with 0.005% sodium azide (Fluka, Buchs, Switzerland) was recirculated beneath the skin with a constant rate of 10 ml/h. Acceptor fluid ensured the sink condition. After the penetrants were removed from the skin, the stratum corneum was separated by tape-stripping method, using 30 fragments of an adhesive tape (3M Medica Pharma, St. Paul, MN, USA). The following parameters were employed: pressure about 1 kg/cm^2 (applied by stamp), 2 s duration of pressure, and a rapid removal rate at an angle of 45^o. The skin layers were isolated by the heat separation technique. […]

Series [7] deals with mice. The settings on record: 2 g/kg; cited from earlier work.
Series [8] has as its system rats. The settings on record: 2 g/kg; cited from earlier work.
In series [9] the test system is human acute myeloid leukemia cell line HL-60. More on the design: method as in PMID 21547680. The settings on record: cited from earlier work.

The log P is the decadic logarithm of the partition coefficient of the neutral form, usually between octanol and water.

Chain of porcine pancreatic elastase (P00772 27-266): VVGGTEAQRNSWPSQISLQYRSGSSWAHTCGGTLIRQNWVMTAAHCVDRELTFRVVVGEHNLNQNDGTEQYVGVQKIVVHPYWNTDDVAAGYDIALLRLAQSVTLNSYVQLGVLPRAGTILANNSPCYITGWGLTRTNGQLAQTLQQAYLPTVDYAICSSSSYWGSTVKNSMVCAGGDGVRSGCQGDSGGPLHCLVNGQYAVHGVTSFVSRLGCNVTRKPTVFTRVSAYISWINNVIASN

For `O=c1c2cc(O)c(O)cc2oc2cc(O)c([C@@H]3O[C@H](CO)[C@@H](O)[C@H](O)[C@H]3O)c(O)c12` [mangiferin, 2-C-β-D-glucopyranosyl-1,3,6,7-tetrahydroxyxanthone], the “effect on apoptotic effects of hesperidin in HeLa cells” value in series [1] is “enhanced apoptotic effects of hesperidin”. In addition, the “log P” value in [2] is given as 2.73. In addition, the IC50 turned out to be 254 ± 7.56 µM in [3] (FALGPA 0.8 mM, pH 7.5, 15 min preincubation, read-out: concentration leading to a 50% loss of collagenase activity (IC50)) and 140 ± 9.34 µM in [5] (SANA 0.8 mM, pH 8, 15 min preincubation, read-out: concentration leading to a 50% loss of elastase activity (IC50)). In [3] (FALGPA substrate), the “concentrations that inactivated collagenase almost completely” value is on record as “above 500 μM”. Moreover, the “type of collagenase inhibition” value in series [3] (Lineweaver-Burk plots) is on record as “noncompetitive”. Besides, the “reversibility of collagenase inhibition” value in [3] (activity vs enzyme concentration plots) was “reversible”. In addition, the “potency on collagenase relative to oleanolic acid (fold lower)” value in series [3] (vs reference oleanolic acid) was determined as 4.9 fold. Also, the solubility in ethanol entry in series [4] (ethanol) is “slightly soluble”. Moreover, the “solubility in nonpolar solvents” value in series [4] (some nonpolar solvents (e.g. n-hexane, diethyl ether)) was “practically insoluble”. The solubility in water result in [4] (water) is listed as “sparingly soluble”. Moreover, the “type of elastase inhibition” value in [5] (Lineweaver-Burk plots, 0, 59, 118 and 177 μM) was “noncompetitive”. The “concentrations that inactivated elastase almost completely” value in series [5] (SANA substrate) is “above 473 μM”. The “reversibility of elastase inhibition” value in series [5] (activity vs enzyme concentration plots, 0, 59, 118 and 177 μM) is reported as “reversible”. The “potency on elastase relative to oleanolic acid (fold lower)” value in series [5] (vs reference oleanolic acid) stood at 4.2 fold. Moreover, the “amount permeated through the skin from ethanol solution relative to water solution” value in series [6] is “about 2 fold”. Also, the “concentration in the acceptor fluid after 24 hours relative to after 2 hours” value in [6] was “about 2 fold”. Moreover, the dermal acute toxicity result in series [7] and in series [8] was “did not show toxic effects” throughout. Further, the “apoptosis in HL-60 cells” value in [9] is given as “induce apoptosis”.
